This is an account of results in patent US9114133B2, “Method of improving diastolic dysfunction” (U.S. DEPT. OF VETERANS AFFAIRS, priority 2006, dated 2015).

The subject of assay [1] is DOCA-salt mouse model (diastolic dysfunction) and sham mice. The assay is described as follows: Transthoracic echocardiography, in vivo BH4 treatment in DOCA-salt mice. To be noted: BH4 diet 5 mg BH4/day day 11-18, mean ± SEM. The procedure: Previously, I have shown that the DOCA-salt mouse model leads to mild hypertension, NOS uncoupling, myocardial oxidative stress, and diastolic dysfunction (Reference 10). A gradual and mild elevation in blood pressure was induced by unilateral nephrectomy, subcutaneous implantation of a controlled release deoxycorticosterone acetate (DOCA) pellet (0.7 mg/d; Innovative Research of America, Sarasota, Fla.), and substituting drinking water with 1.05% saline. Control animals underwent a sham operation, had placebo pellet implantation, and received water without salt.
Mice were divided into two groups which received a control diet (sham N=7; DOCA-salt N=10) and two groups which received a BH4 supplemental diet of 5 mg BH4/day (Research Diets Inc, New Brunswick, N.J.; sham+BH4 N=8; DOCA-salt+BH4 N=8). The supplemental diet began on day 11 after surgery, and continued until day 18, when the mice were analyzed and sacrificed.
Mitral pulse wave Doppler flow and tissue Doppler imaging (TDI) were performed using the Vevo 770 high-resolution in vivo imaging system (Visual Sonics, Toronto, Canada) (Reference 10). Mice were anesthetized with 1-1.5% isoflurane until a heart rate of around 350-390 beats/min was achieved because measures of diastolic function are sensitive to heart rate and loading conditions. M-mode images in the parasternal long axis and the left ventricle (LV) short-axis views at the mid-papillary level were taken. Measurements were averaged from five consecutive beats during expiration. The images for each mouse were recorded for at least 5 s (30-40 cardiac cycles) from which three to five representative cycles with the highest quality imaging were selected. Percent fractional shortening (% FS) was calculated as 100×(LVEDd)−(LVESd)/(LVEDd) and percent LV ejection fraction (% EF) was calculated as 100×[(7/2.4+LVEDd)×LEDd^3]−[(7/2.4+LVESd)×LVESd^3]/[(7/2.4+LVEDd)×LEDd^3]. Doppler measurements were made at the tips of the mitral leaflets for diastolic filling profiles in the apical four-chamber view. Mitral inflow velocities, peak early (E) and late (A) were measured by conventional pulsed-wave Doppler. TDI was used to determine the mitral annulus longitudinal velocities (Sm, E′, and A′) (Reference 10). Baseline images before treatment were acquired to confirm diastolic dysfunction in DOCA-salt mice. Subsequently, the mice were fed with BH4, followed by echocardiography at day 18.

Assay [2] has as its system isolated ventricular myocytes. The assay is described as follows: Isolated myocyte contraction and relaxation parameters (IonOptix). Format: cell-based, mouse. To be noted: 1.0 Hz, 10 V, external Ca2+ 1.2 mmol/L.
Assay [3] has as its system MnSOD deficient cardiomyocytes. Nature of the assay: Contraction and relaxation of cardiomyocytes from heterozygous MnSOD knockout mice (IonOptix). Format: cell-based, mouse. As to conditions: BH4 treatment. The procedure:
Echocardiography was used to determine DD in heterozygous MnSOD knockout mice. The mitral annulus longitudinal velocities (E′, and A′) were determined by pulsed-wave tissue Doppler from the apical four-chamber view. Mitochondrial ROS were measured by confocal microscopy and flow cytometry from isolated cardiomyocytes using MitoSOX Red. NO was measured by DAF-FM and by the Griess reaction. Contraction and relaxation impairment were assessed by lonOptix System.

In assay [4] the test system is isolated single myocytes. Nature of the assay: Residual sarcomere length of isolated myocytes with BDM. Format: cell-based, mouse. To be noted: BDM 10 mM. The procedure:
2,3-Butanedione monoxime (BDM), a cross-bridge inhibitor, was used to measure residual sarcomere length. BDM inhibits the Ca^2+ regulated attachment of the cross-bridges and force-generation of the attached cross-bridges (Reference 16). Isolated single myocytes were loaded on an chamber and perfused with BDM (10 mM) in Tyrode's solution at 37° C. Sarcomere length was again measured while the myocytes were field-stimulated as described above.

[5] abbreviates: myocytes from DOCA-salt + BH4 mice.

Each structure is given as a SMILES string. Marks after values point to notes of the source that are not given here.

On to `C[C@H](O)[C@H](O)[C@H]1CNc2nc(N)[nH]c(=O)c2N1` [BH4, tetrahydrobiopterin], for which, in assay [1] (DOCA-salt mice), the “A′ (tissue Doppler)” value is 15.2 ± 1.0 mm/s, the “EF (ejection fraction)” value is recorded as 54.5 ± 5.0%, the “E′ (tissue Doppler)” value is 16.8 ± 1.3†^ mm/s and the “FS (fractional shortening)” value is reported as 26.6 ± 2.9%. Moreover, in assay [1] (DOCA-salt mice), the LVEDD is on record as 3.67 ± 0.14 mm, the LVESD was determined as 2.65 ± 0.21 mm, the “MV A” value came out at 367.8 ± 48.3 mm/s and the “MV E” value is listed as 555.0 ± 35.1†^ mm/s. Besides, in assay [1] (DOCA-salt mice), the “MV E/A ratio” value is 1.71 ± 0.33 and the Sm worked out at 15.8 ± 1.5. For the same molecule, in assay [1] (sham mice), the “A′ (tissue Doppler)” value is recorded as 21.1 ± 1.9 mm/s, the “E/E′ ratio” value is listed as 34.91 ± 6.81&, the “EF (ejection fraction)” value amounted to 51.1 ± 2.8% and the “E′ (tissue Doppler)” value is on record as 24.4 ± 2.2†& mm/s. In assay [1] (sham mice), the “E′/A′ ratio” value is 1.17 ± 0.06&, the “FS (fractional shortening)” value came to 24.7 ± 1.6%, the LVEDD was found to be 4.05 ± 0.10 mm and the LVESD stood at 3.01 ± 0.11 mm. In addition, in assay [1] (sham mice), the “MV A” value was 357.5 ± 31.7 mm/s, the “MV E” value was 738.1 ± 31.1†& mm/s, the “MV E/A ratio” value is on record as 2.28 ± 0.33 and the Sm came out at 22.9 ± 1.5. Besides, in assay [2] (setting [5]), the “Diastolic SL” value amounted to 1.77±0.01 μm, the Relengthening velocity is given as 2.39 ± 0.18 μm/s, the Sarcomere shortening is reported as 9.48 ± 0.49% and the Shortening velocity is −2.42 ± 0.14 μm/s. In assay [2] (setting [5]), the “Systolic SL” value came to 1.60 ± 0.01 μm, the “Time to 50% relengthening” value turned out to be 240.3 ± 7.5 ms, the “Time to 50% shortening” value amounted to 47.5 ± 0.7 ms and the “Time to 90% relengthening” value was 300.0 ± 13.4 ms. In assay [2] (setting [5]), the “Time to 90% shortening” value is listed as 93.5 ± 1.8 ms and the “Time to peak shortening” value amounted to 146.2 ± 0.3 ms. In assay [2] (myocytes from sham + BH4 mice), the “Diastolic SL” value was 1.80 ± 0.01#†& μm; the “Relaxation constant, τ” value was 0.07 ± 0.00&; the Relengthening velocity was 2.75 ± 0.18#†& μm/s; the Sarcomere shortening is reported as 10.64 ± 0.61& %. In assay [2] (myocytes from sham + BH4 mice), the Shortening velocity is recorded as −2.90 ± 0.16#†& μm/s, the “Systolic SL” value was 1.61 ± 0.01& μm, the “Time to 50% relengthening” value is listed as 204.7 ± 6.0&# ms and the “Time to 50% shortening” value came to 45.6 ± 0.8 ms. Moreover, in assay [2] (myocytes from sham + BH4 mice), the “Time to 90% relengthening” value was 258.7 ± 11.7&# ms, the “Time to 90% shortening” value was 87.3 ± 1.8&# ms and the “Time to peak shortening” value is on record as 133.6 ± 0.3& ms. In assay [3], the “Relaxation constant (tau)” value is reported as 0.73±0.01 and the Resting sarcomere length was 1.77±0.01 μm.
Consider `CC(=O)C(C)=NO` [BDM, 2,3-Butanedione monoxime], for which the Residual sarcomere length result in assay [4] (myocytes after BH4 treatment) was “no effect”; in assay [4] (myocytes of sham and DOCA-salt groups), “increased”.
